The first assay has as its target AMPK. Put plainly: AMPK activation, enzyme-linked immunosorbent assay. To be noted: compounds of Table 1 (Table 6). The assay is classed as biochemical.
Regarding `Cc1c(C(=O)NC2CCN(Cc3ccccn3)CC2)oc2cc(OC3CCN(c4ccc(C(F)(F)F)cc4)CC3)ccc12` [1-68, 3-methyl-N-(1-(pyridin-2-ylmethyl)piperidin-4-yl)-6-(1-(4-(trifluoromethyl)phenyl)piperidin-4-yloxy)benzofuran-2-carboxamide], the EC50 (commonly the concentration giving half of the maximal effect) was below 100 nM.
`O=C(N[C@@H]1CCN(Cc2ccncc2)C1)c1cc2cc(OC3CCN(c4ccc(C(F)(F)F)cc4)CC3)ccc2o1` [1-122, (R)-N-(1-(pyridin-4-ylmethyl)pyrrolidin-3-yl)-5-(1-(4-(trifluoromethyl)phenyl)piperidin-4-yloxy)benzofuran-2-carboxamide] returned an EC50 of 100 to 500 nM.
The same measure, in the same setting: as for `O=C(NC1CCN(Cc2ccc(F)cc2)CC1)c1cc(OC2CCN(c3ccc(C(F)(F)F)cc3)CC2)ccn1` [1-29, N-(1-(4-fluorobenzyl)piperidin-4-yl)-4-(1-(4-(trifluoromethyl)phenyl)piperidin-4-yloxy)picolinamide], the figure is 100 to 500 nM; as for `O=C(N[C@@H]1CCN(C(=O)c2ccncc2)C1)c1cc2cc(OC3CCN(c4ccc(C(F)(F)F)cc4)CC3)ccc2o1` [1-125, (R)-N-(1-isonicotinoylpyrrolidin-3-yl)-5-(1-(4-(trifluoromethyl)phenyl)piperidin-4-yloxy)benzofuran-2-carboxamide], 1000 to 5000 nM; as for `COC(=O)c1ccc(CN2CCC(NC(=O)c3ccc(OC4CCN(c5ccc(C(F)(F)F)cc5)CC4)nc3)CC2)cc1` [1-45, methyl 4-((4-(6-(1-(4-(trifluoromethyl)phenyl)piperidin-4-yloxy)nicotinamido)piperidin-1-yl)methyl)benzoate], above 10000 nM.
For `Cc1c(C(=O)NC2CCN(Cc3cccc(C#N)c3)CC2)oc2cc(OC3CCN(c4ccc(C(F)(F)F)cc4)CC3)ccc12` [1-66, N-(1-(3-cyanobenzyl)piperidin-4-yl)-3-methyl-6-(1-(4-(trifluoromethyl)phenyl)piperidin-4-yloxy)benzofuran-2-carboxamide], the EC50 is below 100 nM.
In turn, `O=C(NC1CCN(Cc2ccc(F)cc2)CC1)c1cc2ccc(OC3CCN(c4ccc(C(F)(F)F)cc4)CC3)cc2o1` [1-91, N-(1-(4-fluorobenzyl)piperidin-4-yl)-6-(1-(4-(trifluoromethyl)phenyl)piperidin-4-yloxy)benzofuran-2-carboxamide] gave an EC50 above 10000 nM.
As for `N#Cc1ccccc1CN1CCC(NC(=O)c2cc3ccc(OC4CCN(c5ccc(C(F)(F)F)cc5)CC4)cc3s2)CC1` [1-146, N-(1-(2-cyanobenzyl)piperidin-4-yl)-6-(1-(4-(trifluoromethyl)phenyl)piperidin-4-yloxy)benzo[b]thiophene-2-carboxamide], the EC50 was 100 to 500 nM.
Still for that read-out and setting: then `O=C(N[C@@H]1CCNC1)c1ccc(OC2CCN(c3ccc(C(F)(F)F)cc3)CC2)cn1` [1-24, (R)-N-(pyrrolidin-3-yl)-5-(1-(4-(trifluoromethyl)phenyl)piperidin-4-yloxy)picolinamide], with 5000 to 10000 nM.
`O=C(NC1CCN(Cc2cccnc2)CC1)c1cc2ccc(OC3CCN(c4ccc(C(F)(F)F)cc4)CC3)cc2o1` [1-96, N-(1-(pyridin-3-ylmethyl)piperidin-4-yl)-6-(1-(4-(trifluoromethyl)phenyl)piperidin-4-yloxy)benzofuran-2-carboxamide] returned an EC50 below 100 nM.
Still for that read-out and setting: as for `N#Cc1ccc(CN2CCC(NC(=O)c3cc4ccc(OC5CCN(c6ccc(C(F)(F)F)cc6)CC5)cc4o3)CC2)cc1` [1-90, N-(1-(4-cyanobenzyl)piperidin-4-yl)-6-(1-(4-(trifluoromethyl)phenyl)piperidin-4-yloxy)benzofuran-2-carboxamide], the figure is below 100 nM; as for `O=C(c1ccc(F)cc1)N1CCC(NS(=O)(=O)c2ccc(OC3CCN(c4ccc(C(F)(F)F)cc4)CC3)nc2)CC1` [1-60, N-(1-(4-fluorobenzoyl)piperidin-4-yl)-6-(1-(4-(trifluoromethyl)phenyl)piperidin-4-yloxy)pyridine-3-sulfonamide], above 10000 nM.
Regarding `NC(=O)c1ccc(CN2CCC(Oc3ccc4oc(C(=O)NC5CCN(Cc6ccccc6)CC5)cc4c3)CC2)cc1` [1-116, N-(1-benzylpiperidin-4-yl)-5-(1-(4-carbamoylbenzyl)piperidin-4-yloxy)benzofuran-2-carboxamide], the EC50 was 100 to 500 nM.

Still in this assay, the particulars now being: compounds of Table 2 (Table 7).
For `N#Cc1ccc(NC(=O)N2CCC(NC(=O)c3ccc4[nH]c5c(c4c3)CN(Cc3ccc(C(F)(F)F)cc3)CC5)CC2)cc1` [2-27, N-(1-(4-cyanophenyl-carbamoyl)piperidin-4-yl)-2-(4-(trifluoromethyl)benzyl)-2,3,4,5-tetrahydro-1H-pyrido [4,3-b]indole-8-carboxamide], the EC50 is 1000 to 5000 nM.
Same read-out and setting: then `N#Cc1ccc(CN2CCC(NC(=O)c3ccc4[nH]c5c(c4c3)CN(Cc3ccccc3)CC5)CC2)cc1` [2-4, 2-benzyl-N-(1-(4-cyanobenzyl)piperidin-4-yl)-2,3,4,5-tetrahydro-1H-pyrido[4,3-b]indole-8-carboxamide], with 1000 to 5000 nM; and `NC(=O)c1ccc(CN2CCc3[nH]c4ccc(C(=O)NC5CCN(Cc6ccc(F)cc6)CC5)cc4c3C2)cc1` [2-48, 2-(4-carbamoylbenzyl)-N-(1-(4-fluorobenzyl)piperidin-4-yl)-2,3,4,5-tetrahydro-1H-pyrido [4,3-b]indole-8-carboxamide], with above 100000 nM.
Still for that read-out and setting: as for `NC(=O)c1ccc(CN2CCC(NC(=O)c3ccc4[nH]c5c(c4c3)CN(Cc3ccc(C(F)(F)F)cc3)CC5)CC2)cc1` [2-52, N-(1-(4-carbamoyl-benzyl)piperidin-4-yl)-2-(4-(trifluoromethyl)benzyl)-2,3,4,5-tetrahydro-1H-pyrido [4,3-b]indole-8-carboxamide], the figure is 1000 to 5000 nM.

Staying with this assay, now noted: compounds of Table 3 (Table 8).
Regarding `N#Cc1ccc(CN2CCC(NC(=O)c3ccc(C(=O)NC4CCN(Cc5ccc(C(F)(F)F)cc5)CC4)cc3)CC2)cc1` [3-31, N^1-(1-(4-cyanobenzyl)piperidin-4-yl)-N^4-(1-(4-(trifluoromethyl)benzyl)piperidin-4-yl)terephthalamide], the EC50 is below 100 nM.
Same read-out and setting: as for `CC(C)(C)OC(=O)N1CCC(NC(=O)c2nc3ccc(OC4CCN(c5ccc(C(F)(F)F)cc5)CC4)cc3o2)CC1` [3-1, tert-butyl 4-(6-(1-(4-(trifluoromethyl)phenyl)piperidin-4-yloxy)benzo[d]oxazole-2-carboxamido)piperidine-1-carboxylate], the figure is below 100 nM.
On to `N#Cc1ccc(CN2CCC(NC(=O)c3nc4ccc(OC5CCN(c6ccc(C(F)(F)F)cc6)CC5)cc4o3)CC2)cc1` [3-2, N-(1-(4-cyanobenzyl)piperidin-4-yl)-6-(1-(4-(trifluoromethyl)phenyl)piperidin-4-yloxy)benzo[d]oxazole-2-carboxamide], for which the concentration giving a half-maximal response (EC50) was below 100 nM.
Regarding `N#Cc1ccc(CN2CCC(NC(=O)c3ccc(C(=O)NC4CCN(Cc5ccccc5)CC4)cc3)CC2)cc1` [3-33, N^1-(1-benzylpiperidin-4-yl)-N^4-(1-(4-cyanobenzyl)piperidin-4-yl)terephthalamide], the EC50 fell in the range of 10000 to 100000 nM.
The same measure, in the same setting: as for `N#Cc1ccc(CN2CCC(NC(=O)c3ccc(C(=O)NC4CCN(c5ccccc5)CC4)cc3)CC2)cc1` [3-32, N^1-(1-(4-cyanobenzyl)piperidin-4-yl)-N^4-(1-phenylpiperidin-4-yl)terephthalamide], the figure is 10000 to 100000 nM.
With `O=C(NC1CCN(Cc2ccncc2)CC1)c1nc2ccc(OC3CCN(c4ccc(C(F)(F)F)cc4)CC3)cc2o1` [3-3, N-(1-(pyridin-4-ylmethyl)piperidin-4-yl)-6-(1-(4-(trifluoromethyl)phenyl)piperidin-4-yloxy)benzo[d]oxazole-2-carboxamide], the EC50 was below 100 nM.

The same assay, now with this note: compounds of Table 4 (Table 9).
As to `N#Cc1ccc(CN2CCC(NC(=O)c3ccc(C(=O)N4CCN(Cc5ccc(C#N)cc5)CC4)cn3)CC2)cc1` [4-1, 5-(4-(4-cyanobenzyl)piperazine-1-carbonyl)-N-(1-(4-cyanobenzyl)piperidin-4-yl)picolinamide], the EC50 is below 500 nM.
The same measure, in the same setting: as for `O=C(N[C@H]1CCN(Cc2ccncc2)C1)c1ccc(C(=O)N2CCN(c3ccc(Cl)cc3)CC2)cn1` [4-5, (S)-5-(4-(4-chlorophenyl)piperazine-1-carbonyl)-N-(1-(pyridin-4-ylmethyl)pyrrolidin-3-yl)picolinamide], the figure is 1000 to 5000 nM.

The assay is the same for the next values; noted with them: compounds of Table 5 (Table 10).
In the case of `CC(C)(C)OC(=O)NCCCNC(=O)c1ccc(OC2CCN(Cc3ccc(C(F)(F)F)cc3)CC2)cc1` [5-95, tert-butyl 3-(4-(1-(4-(trifluoromethyl)benzyl)piperidin-4-yloxy)benzamido)propylcarbamate], the 50% effective concentration (EC50) is below 1000 nM.
Turning to `O=C(NC1CCN(Cc2ccccc2)CC1)c1ccc(OC2CCN(Cc3ccc(Cl)c(Cl)c3)CC2)c(Cl)c1` [5-84, N-(1-benzylpiperidin-4-yl)-3-chloro-4-(1-(3,4-dichlorobenzyl)piperidin-4-yloxy)benzamide], the EC50 was below 1000 nM.
`O=C(NC1CCN(Cc2ccccc2)CC1)c1cccc(OC2CCN(Cc3ccccc3)CC2)c1` [5-13, N-(1-benzylpiperidin-4-yl)-3-(1-benzylpiperidin-4-yloxy)benzamide]: the EC50 fell in the range of 20000 to 50000 nM.
As to `O=C(NC1CCN(Cc2ccc(F)cc2)CC1)c1ccc(OC2CCN(c3ccc(C(F)(F)F)cc3)CC2)c(F)c1` [5-27, 3-fluoro-N-(1-(4-fluorobenzyl)piperidin-4-yl)-4-(1-(4-(trifluoromethyl)phenyl)piperidin-4-yloxy)benzamide], the EC50 was below 1000 nM.
`O=C(NC1CCN(Cc2ccccc2)CC1)c1cc(Cl)c(OC2CCN(Cc3ccc(F)c(F)c3)CC2)c(Cl)c1` [5-76, N-(1-benzylpiperidin-4-yl)-3,5-dichloro-4-(1-(3,4-difluorobenzyl)piperidin-4-yloxy)benzamide] had an EC50 below 1000 nM.
The same measure, in the same setting: as for `O=C(NC1CCN(Cc2ccccc2)CC1)c1ccc(OC2CCN(Cc3ccccn3)CC2)c(F)c1` [5-39, N-(1-benzylpiperidin-4-yl)-3-fluoro-4-(1-(pyridin-2-ylmethyl)piperidin-4-yloxy)benzamide], the figure is 1000 to 10000 nM; as for `O=C(NC1CCN(Cc2ccccc2)CC1)c1ccc(OC2CCN(Cc3ccc(Cl)c(Cl)c3)CC2)c(F)c1` [5-82, N-(1-benzylpiperidin-4-yl)-4-(1-(3,4-dichlorobenzyl)piperidin-4-yloxy)-3-fluorobenzamide], below 1000 nM.

Source of the values: patent US9511058B2, “Methods for using carboxamide, sulfonamide and amine compounds” (Rigel Pharmaceuticals, Inc., priority 2010, dated 2016).
